Results reported in US7034016B2, “8-phenyl-6,9-dihydro-[1,2,4]triazolo[3,4-i]purin-5-one derivatives” (Almirall Prodesfarma, S.A., priority 1999, dated 2006).

target: T1, cyclic GMP specific phosphodiesterase (PDE 5) (Homo sapiens, UniProt O76074); assay: PDE 5 inhibitory activity (enzyme isolated from human platelet lysates, [3H]-cyclic GMP substrate); type: biochemical; details: PDE 5 from human platelet lysates; 0.25 mM [3H]-cyclic GMP as substrate
T1 construct: isolated from human platelet lysates by ion exchange chromatography using a Mono-Q column; from tissue; host or cells: human platelets (lysate, Mono-Q ion exchange fraction)
Experimental: The cyclic GMP specific phosphodiesterase (PDE 5) was isolated from human platelet lysates by ion exchange chromatography using a Mono-Q column. The enzyme activity was determined using 0.25 mM [3H]-cyclic GMP as substrate. The purification of the enzyme and the assessment of the PDE 5 inhibitory activity of our compounds were performed essentially as described by Gristwood et al., Br. J. Pharmacol. 1992, 105, 985–991.

Compound | IC50
CCCOc1ccc(S(=O)(=O)Nc2ccncc2)cc1-c1nc2c([nH]1)c1nncn1c(=O)n2CCC [Example 17, 3-(5-Oxo-6-propyl-6,9-dihydro-5H-[1,2,4]triazolo[3,4-i]purin-8-yl)-4-propoxy-N-pyridin-4-yl-benzenesulphonamide] | 1.5 nM
CCCOc1ccc(S(=O)(=O)N2CCN(C(C)(C)CO)CC2)cc1-c1nc2c([nH]1)c1nncn1c(=O)n2CCC [Example 108, 8-{5-[4-(2-Hydroxy-1,1-dimethylethyl)piperazine-1-sulfonyl]-2-propoxyphenyl}-6-propyl-6,9-dihydro-[1,2,4]triazolo[3,4-i]purin-5-one] | 1.6 nM
8-[5-(4-Methyl-[1,4]diazepane-1-sulfonyl)-2-propoxyphenyl]-6-propyl-6,9-dihydro-[1,2,4]triazolo[3,4-i]purin,5-one [Example 22] | 3.7 nM
CCCOc1ccc(S(=O)(=O)N2CCN(C)CC2)cc1-c1nc2c([nH]1)c1nncn1c(=O)n2CC [Example 4, 6-Ethyl-8-[5-(4-methylpiperazine-1-sulphonyl)-2-propoxyphenyl]-6,9-dihydro-[1,2,4]triazolo[3,4-i]purin-5-one] | 11 nM
CCCOc1ccc(S(=O)(=O)N2CCN(CCO)CC2)cc1-c1nc2c([nH]1)c1nncn1c(=O)n2CCC [Example 27, 8-{5-[4-(2-Hydroxyethyl)piperazine-1-sulphonyl]-2-propoxyphenyl}-6-propyl-6,9-dihydro-[1,2,4]triazolo[3,4-i]purin-5-one] | 4 nM
CCCCOc1ccc(S(=O)(=O)N2CCN(C)CC2)cc1-c1nc2c([nH]1)c1nncn1c(=O)n2CC [Example 6] | 13 nM
CCCOc1ccc(S(=O)(=O)N2CCN(C)CC2)cc1-c1nc2c([nH]1)c1nncn1c(=O)n2CCC [Example 18, 8-[5-(4-Methylpiperazinosulphonyl)-2-propoxyphenyl]-6-propyl-6,9-dihydro-[1,2,4]triazolo[3,4-i]purin-5-one] | 14 nM
CCCCn1c(=O)n2cnnc2c2[nH]c(-c3cc(S(=O)(=O)N4CCN(CCO)CC4)ccc3OCCC)nc21 [Example 43, 6-Butyl-8-(2-propoxy-5-[4-(2-hydroxyethyl)piperazine-1-sulphonyl]phenyl}-6,9-dihydro[1,2,4]triazolo[3,4-i]purin-5-one] | 4 nM

Now those with a lower IC50, led by results:

IC50 | Compound
0.51 nM | CCCOc1ccc(S(=O)(=O)N2C[C@@H]3C[C@H]2CN3C)cc1-c1nc2c([nH]1)c1nncn1c(=O)n2CCC [Example 89, 8-[5-((1S,4S)-5-Methyl-2,5-diazabicyclo[2.2.1]heptane-2-sulfonyl)-2-propoxyphenyl]-6-propyl-6,9-dihydro-[1,2,4]triazolo[3,4-i]purin-5-one]
0.84 nM | CCCCn1c(=O)n2cnnc2c2[nH]c(-c3cc(S(=O)(=O)N4CCN(C(C)(C)CO)CC4)ccc3OCCC)nc21 [Example 138, 6-Butyl-8-{5-[4-(2-hydroxy-1,1-dimethylethyl)piperazine-1-sulfonyl]-2-propoxyphenyl}-6,9-dihydro-[1,2,4]triazolo[3,4-i]purin-5-one]
0.85 nM | CCCOc1ccc(S(=O)(=O)N2C[C@@H](C)N[C@@H](C)C2)cc1-c1nc2c([nH]1)c1nncn1c(=O)n2CCC [Example 93, 8-[5-((3R,5S)-3,5-Dimethylpiperazine-1-sulfonyl)-2-propoxyphenyl]-6-propyl-6,9-dihydro-[1,2,4]triazolo[3,4-i]purin-5-one]
0.54 nM | N-(3-Dimethylamino-2,2-dimethylpropyl)-3-(oxopropyl-6,9-dihydro-5H-[1,2,4]triazolo[3,4-i]purin-8-yl)-4-propoxybenzenesulfonamide [Example 101]
1.4 nM | CCCOc1ccc(S(=O)(=O)N2CCN[C@@H](C)C2)cc1-c1nc2c([nH]1)c1nncn1c(=O)n2CCC [Example 86, 8-[5-((S)-3-Methylpiperazine-1-sulfonyl)-2-propoxyphenyl]-6-propyl-6,9-dihydro-[1,2,4]triazolo[3,4-i]purin-5-one]
0.34 nM | CCCOc1ccc(S(=O)(=O)N2CCCN(CCO)CC2)cc1-c1nc2c([nH]1)c1nncn1c(=O)n2CCC [Example 105, 8-{5-[4-(2-Hydroxyethyl)-[1,4]diazepane-1-sulfonyl]-2-propoxyphenyl}-6-propyl-6,9-dihydro-[1,2,4]triazolo[3,4-i]purin-5-one]
0.97 nM | CCCOc1ccc(S(=O)(=O)N2CC(CN(C)C)C2)cc1-c1nc2c([nH]1)c1nncn1c(=O)n2CCC [Example 91, 8-[5-(3-Dimethylaminomethylazetidine-1-sulfonyl)-2-propoxyphenyl]-6-propyl-6,9-dihydro-[1,2,4]triazolo[3,4-i]purin-5-one]
